These molecules were tested on Plasmodium falciparum (assay: GSK_TCMDC: Inhibition of Plasmodium falciparum 3D7 in whole erythrocytes, using parasite LDH activity as an index of growth.). Settings: Plasmodium falciparum, 3D7.
Type: functional, organism-based
In the case of `Nc1cc(/C=C/c2ccc([N+](=O)[O-])o2)nc2ccccc12`, the XC50 is reported as 0.367 µM. For `O=C(/C=C/c1ccc(Cl)c(Cl)c1)NCCCCCN1CCC(n2c(=O)[nH]c3ccccc32)CC1`, the XC50 was 0.869 µM. `COc1ccccc1C(C)NCC(=O)Nc1cccc(C(=O)Nc2cccc(C(F)(F)F)c2)c1` (stereo unspecified) gave an XC50 of 1.53 µM. `CCc1cc2c(N)nc(N)nc2nc1-c1ccccc1` was tested, and the XC50 was 0.946 µM. Molecule `Oc1c(Br)cc2oc3c(c2c1CNCc1ccccc1)CCCC3` has an XC50 of 0.961 µM. Work on `COc1cc2nc(N3CCC(CNC(=O)c4ccc(-c5ccc(C(=O)N(C)C)cc5)c(OCCO)c4)CC3)nc(N)c2cc1OC` yielded an XC50 of 0.73 µM. `Cc1cc(=NN=Cc2cccc(F)c2)c2cccc(C)c2[nH]1` showed an XC50 of 0.77 µM. For `COc1ccc2c(NCCc3ccccc3)cc(-c3ccccc3)nc2c1`, the XC50 was 0.987 µM. `CN1CCCCC1CCc1cc(C(=O)Nc2ccc(-c3ccc(O)cc3)cc2)ccc1O` (stereo unspecified) was tested, and the XC50 was 1.11 µM. `Fc1ccc2[nH]c3c(NCCN4CCCCC4)ncnc3c2c1` was tested, and the XC50 was 0.834 µM. `Cc1ccnc2nc(C(=O)Nc3cc(Cl)ccc3N3CCOCC3)nn12` showed an XC50 of 1.24 µM. Molecule `CC(C)Oc1ccc2c(c1)OC(c1ccccc1)(C(F)(F)F)NC2=O` (stereo unspecified) has an XC50 of 0.136 µM. In the case of `NC[C@H](CC1CCCCC1)NC(=O)c1ccc(-c2ccnc3[nH]ccc23)s1`, the XC50 is reported as 0.95 µM. For `CC1CN(CC(O)Cn2c3ccc(Br)cc3c3cc(Br)ccc32)CC(C)O1` (stereo unspecified), the XC50 was 0.776 µM. With `CNCCN(C)C(=O)Oc1c(Br)c(C)nc(C)c1-c1ccc(Oc2ccc(OC(F)(F)F)cc2)cc1` the XC50 was 0.109 µM. `Cc1cc(C2CCN(CCCCNC(=O)c3ccc(-c4ccc(C(F)(F)F)cc4)cc3)CC2)c(C)cc1OCC#N` was tested, and the XC50 was 1.01 µM. `CN(C)CCNCc1nc(-c2ccc3c(Nc4ccc(Oc5ccccc5)cc4)ccnc3c2)cs1` showed an XC50 of 0.736 µM. Work on `Clc1cnc2ccc3c(c2c1CCN1CCC(NCc2cc4c(cn2)OCCO4)CC1)OCCO3` yielded an XC50 of 0.718 µM. With `CN1CCCC(CN2CCN(Cc3ccc(-c4ccc(-c5nc6ccccc6[nH]5)cc4)cc3)CC2)C1` (stereo unspecified) the XC50 was 0.141 µM. `COc1ccc(-c2cccc(NC(=O)c3cccc(C#N)c3)c2)cc1CN1CCC(O)CC1` was tested, and the XC50 was 0.99 µM. `CNC(=O)C1Cc2c([nH]c3ccc(Br)cc23)C2(CCN(CCc3ccccc3)CC2)N1` (stereo unspecified) showed an XC50 of 0.919 µM. `CCCCN(CCCC)CCNC(=O)c1cc(OC(F)(F)F)ccc1O` was tested, and the XC50 was 0.92 µM. `Cc1ccc(CC(C)NCC(O)c2cccc(C(F)(F)F)c2)cc1` (stereo unspecified) showed an XC50 of 0.981 µM. `O=C(Nc1cccc(C(F)(F)F)c1)Nc1ccc(Cl)c(Cl)c1` showed an XC50 of 0.735 µM. Work on `Cc1csc(-c2nonc2NC(=O)COc2ccccc2C(C)C)n1` yielded an XC50 of 0.551 µM. `Cc1cccc2nc(-c3cccc(-c4ccc(C(=O)NCc5nccn5C)cc4)c3)[nH]c12` gave an XC50 of 1.32 µM. With `c1ccc(Oc2cccc(Nc3ccnc4ccccc34)c2)cc1` the XC50 was 1.11 µM. `CCCCNCc1cc(Cl)c2ccccc2c1O` showed an XC50 of 0.457 µM. `CC(=O)c1cccc(Nc2nc3ccc(OCc4cc(Cl)cc(Cl)c4)c(C#N)c3[nH]2)c1` was tested, and the XC50 was 0.869 µM. With `Oc1ccc(CCNc2nc(N/N=C/c3ccc(Cl)cc3)nc(N3CCNCC3)n2)cc1` the XC50 was 0.583 µM. In the case of `CCOc1cc2c(cc1OCC)C(c1ccc(O)c(Cl)c1)NCC2` (stereo unspecified), the XC50 is reported as 0.79 µM. With `CN(C)Cc1cc2c(O)c(Cc3ccccc3)ccc2o1` the XC50 was 1.09 µM. `CN1CCC(c2c[nH]c3ccc(NC(=O)Nc4ccc(-c5ccncc5)c(Cl)c4Cl)cc23)CC1` gave an XC50 of 0.696 µM. Molecule `O=C(NCCCCN1CCC(c2ccc3c(c2OCCN2CCCC2)CCCC3)CC1)c1ccc(-c2ccc(C(F)(F)F)cc2)cc1` has an XC50 of 0.447 µM. With `Oc1ccc(CNCCCCCCNCCc2ccc(Cl)cc2)cc1O` the XC50 was 0.989 µM. With `O=C(O)c1ccc2nc(-c3ccc(-c4ccccc4)cc3)n(C3CCN(Cc4ccc(-c5ncc[nH]5)cc4)CC3)c2c1` the XC50 was 1.73 µM. `CN1CCN(c2cc3c(cc2Br)CCN3C(=O)Nc2ccc(-c3cnc4ccccc4c3)cc2)CC1` was tested, and the XC50 was 0.576 µM. For `CCCCCC(C)N/C(=N/c1ccccc1Br)Nc1ccc(C#N)cc1O` (stereo unspecified), the XC50 was 0.751 µM. For `COc1cc2nc(NCCC(C)C)n3nc(-c4ccccc4)nc3c2cc1OC`, the XC50 was 0.417 µM. `CCN1CCCC(CNC(=O)/C(=C/C=C/c2cc3cc(Cl)c(Cl)cc3[nH]2)OC)C1` (stereo unspecified) gave an XC50 of 0.888 µM. Molecule `CC(C)N(C(=O)CSc1nc2cc(Cl)ccc2c(=O)n1Cc1ccccc1)C(C)C` has an XC50 of 0.167 µM.

From ChEMBL document CHEMBL1157539, “Thousands of chemical starting points for antimalarial lead identification” (Nature, 2010)
